Laboratory results taken from patent publication US6737383B1, “Herbicidal oxadiazolidines” (priority 1999, dated 2004).

Columns and labels:
common ragweed = experiment: Test D common ragweed; format: in vivo, Ambrosia elatior; settings: Preemergence, 0 to 100 scale
Procedure, shortened: (§1)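 Seeds were sown in greenhouse pots, one species per pot or compartment. Compounds were in a non-phytotoxic solvent mixture with surfactant; preemergence applications went on the sandy loam surface within one day of planting. Injury was rated visually after 14 to 21 days, 0 (none) to 100 (complete control).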

guineagrass = experiment: Test D guineagrass; format: in vivo, Panicum maximum; settings: Preemergence, 0 to 100 scale
Excerpt: (§2) Seeds, tubers, or plant parts of Alexandergrass (Brachiaria plantaginea), bermuda-grass (Cynodon dactylon), common pursiane (Portulaca oleracea), common ragweed (Ambrosia elatior), common groundsel (Senecio vulgaris), dallisgrass (Paspalum dilatatum), goosegrass (Eleusine indica), guineagrass (Panicum maximum), itchgrass (Rottboellia exaltata), Johnson grass (Sorghum halepense), large crabgrass (Digitaria sanguinalis), pitted morningglory (Ipomoea lacunosa), purple nutsedge (Cyperus rotundus), sandbur (Cenchrus echinatus), sourgrass (Trichachne insularis), Spanishneedles (Bidens bipinnata), surinam grass (Brachiaria decumbens) and tall mallow (Malva sylvestris) were planted into greenhouse pots of flats containing greenhouse planting medium. Plant species were grown in separate pots or individual compartments. Preemergence applications were made within one day of planting the seed or plant part.
(§3) Test chemicals were formulated in a non-phytotoxic solvent mixture which included a surfactant and applied preemergence to the surface of the pot containing seeds in a sandy loam soil. Untreated control pots and treated pots were placed in the greenhouse for growth and visually evaluated for injury 14 to 21 days after herbicide application. Plant response ratings, summarized in Table C, are based on a 0 to 100 scale where 0 is no injury and 100 is complete control. A dash (−) response means no test result.

Johnson grass = experiment: Test D Johnson grass; format: in vivo, Sorghum halepense; settings: Preemergence, 0 to 100 scale
Procedure, shortened: as §1

itchgrass = experiment: Test D itchgrass; format: in vivo, Rottboellia exaltata; settings: Preemergence, 0 to 100 scale
Procedure, shortened: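 Scoring used a 0–100 visual injury scale, with 0 meaning no effect and 100 complete control, assessed 14–21 days after application alongside untreated pots. Preemergence treatments went onto sandy loam surfaces of separately potted seeds within a day of sowing.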

Spanishneedles = experiment: Test D Spanishneedles; format: in vivo, Bidens bipinnata; settings: Preemergence, 0 to 100 scale
Excerpt: as §2, §3

sandbur = experiment: Test D sandbur; format: in vivo, Cenchrus echinatus; settings: Preemergence, 0 to 100 scale
Excerpt: as §2, §3

common pursiane = experiment: Test D common purslane; format: in vivo, Portulaca oleracea; settings: Preemergence, 0 to 100 scale
Excerpt: as §2, §3

large crabgrass = experiment: Test D large crabgrass; format: in vivo, Digitaria sanguinalis; settings: Preemergence, 0 to 100 scale
Procedure, shortened: as §1

tall mallow = experiment: Test D tall mallow; format: in vivo, Malva sylvestris; settings: Preemergence, 0 to 100 scale
Procedure, shortened: as §1

goosegrass = experiment: Test D goosegrass; format: in vivo, Eleusine indica; settings: Preemergence, 0 to 100 scale
Excerpt: as §2, §3

Alexandergrass = experiment: Test D Alexandergrass; format: in vivo, Brachiaria plantaginea; settings: Preemergence, 0 to 100 scale
Excerpt: as §2, §3

morningglory = experiment: Test A morningglory; format: in vivo, Ipomoea spp.; settings: 0 to 10 scale where 0 is no effect and 10 is complete control
Procedure, shortened: (§4)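 Ratings came from visual comparison with untreated plants about eleven days after treatment, scored 0 for no effect through 10 for complete control. Both soil-drench preemergence and runoff-spray postemergence applications were made at the same time.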

velvetleaf = experiment: Test A velvetleaf; format: in vivo, Abutilon theophrasti; settings: 0 to 10 scale where 0 is no effect and 10 is complete control
Procedure, shortened: as §4

[1] = Rate 32 g/ha, 0 no injury, 100 complete control
[2] = Rate 64 g/ha, 0 no injury, 100 complete control
[3] = Rate 125 g/ha, 0 no injury, 100 complete control
[4] = Rate 16 g/ha, 0 no injury, 100 complete control

## Cc1ccc(-n2c(=O)on(C(=O)N(c3ccc(F)cc3F)C(C)C)c2=O)c(C)c1 [Compound 24]
Common ragweed; [1]
  Plant response rating, C. ragweed: 0
Common ragweed; [2]
  Plant response rating, C. ragweed: 0
Common ragweed; [3]
  Plant response rating, C. ragweed: 0
Common ragweed; Rate 250 g/ha
  Plant response rating, C. ragweed: 0
Common ragweed; Rate 500 g/ha
  Plant response rating, C. ragweed: 0
guineagrass; [1]
  Plant response rating, Guineagrass: 60
guineagrass; [2]
  Plant response rating, Guineagrass: 75
guineagrass; [3]
  Plant response rating, Guineagrass: 90
guineagrass; Rate 250 g/ha
  Plant response rating, Guineagrass: 98
guineagrass; Rate 500 g/ha
  Plant response rating, Guineagrass: 100
Johnson grass; [1]
  Plant response rating, Johnsongrass: 0
Johnson grass; [2]
  Plant response rating, Johnsongrass: 0
Johnson grass; [3]
  Plant response rating, Johnsongrass: 0
Johnson grass; Rate 250 g/ha
  Plant response rating, Johnsongrass: 85
Johnson grass; Rate 500 g/ha
  Plant response rating, Johnsongrass: 85
itchgrass; [1]
  Plant response rating, Itchgrass: 40
itchgrass; [2]
  Plant response rating, Itchgrass: 40
itchgrass; [3]
  Plant response rating, Itchgrass: 40
itchgrass; Rate 250 g/ha
  Plant response rating, Itchgrass: 40
itchgrass; Rate 500 g/ha
  Plant response rating, Itchgrass: 40
Spanishneedles; [1]
  Plant response rating, Spanishneedles: 0
Spanishneedles; [2]
  Spanishneedles plant response rating: 0
Spanishneedles; [3]
  Spanishneedles plant response rating: 0
Spanishneedles; Rate 500 g/ha
  Plant response rating, Spanishneedles: 0
sandbur; [1]
  Plant response rating, Sandbur: 20
sandbur; [2]
  Sandbur plant response rating: 20
sandbur; [3]
  Sandbur plant response rating: 20
sandbur; Rate 250 g/ha
  Plant response rating, Sandbur: 20
sandbur; Rate 500 g/ha
  Plant response rating, Sandbur: 100
Common pursiane; [1]
  Plant response rating, C. purslane: 0
Common pursiane; [2]
  Plant response rating, C. purslane: 0
Common pursiane; [3]
  Plant response rating, C. purslane: 0
Common pursiane; Rate 250 g/ha
  Plant response rating, C. purslane: 0
Common pursiane; Rate 500 g/ha
  Plant response rating, C. purslane: 0
Large crabgrass; [1]
  Plant response rating, Large crabgrass: 70
Large crabgrass; [2]
  Plant response rating, Large crabgrass: 70
Large crabgrass; [3]
  Plant response rating, Large crabgrass: 100
Large crabgrass; Rate 250 g/ha
  Plant response rating, Large crabgrass: 100
Large crabgrass; Rate 500 g/ha
  Plant response rating, Large crabgrass: 100
Tall mallow; [1]
  Plant response rating, Tall Mallow: 0
Tall mallow; [2]
  Tall Mallow plant response rating: 0
Tall mallow; [3]
  Tall Mallow plant response rating: 0
Tall mallow; Rate 250 g/ha
  Plant response rating, Tall Mallow: 0
Tall mallow; Rate 500 g/ha
  Plant response rating, Tall Mallow: 0
goosegrass; [1]
  Plant response rating, Goosegrass: 50
goosegrass; [2]
  Plant response rating, Goosegrass: 50
goosegrass; [3]
  Plant response rating, Goosegrass: 98
goosegrass; Rate 250 g/ha
  Plant response rating, Goosegrass: 98
goosegrass; Rate 500 g/ha
  Plant response rating, Goosegrass: 100
Alexandergrass; [1]
  Plant response rating, Alexandergrass: 10
Alexandergrass; [2]
  Plant response rating, Alexandergrass: 10
Alexandergrass; [3]
  Plant response rating, Alexandergrass: 10
Alexandergrass; Rate 250 g/ha
  Plant response rating, Alexandergrass: 65
Alexandergrass; Rate 500 g/ha
  Plant response rating, Alexandergrass: 98

## CCN(CC)C(=O)n1oc(=O)n(-c2ccc(F)cc2)c1=O [Compound 3]
morningglory; Postemergence, Rate 1000 g/ha
  Plant response rating, Morningglory: 0
morningglory; Pre-emergence, Rate 2000 g/ha
  Plant response rating, Morningglory: 0
velvetleaf; Postemergence, Rate 1000 g/ha
  Plant response rating, Velvetleaf: 0
velvetleaf; Pre-emergence, Rate 2000 g/ha
  Plant response rating, Velvetleaf: 0

## C=CCn1c(=O)on(C(=O)N(c2ccc(F)cc2F)C2CC2)c1=O [Compound 127]
morningglory; Postemergence, Rate 1000 g/ha
  Plant response rating, Morningglory: 0
morningglory; Pre-emergence, Rate 2000 g/ha
  Plant response rating, Morningglory: 0
velvetleaf; Postemergence, Rate 1000 g/ha
  Plant response rating, Velvetleaf: 0
velvetleaf; Pre-emergence, Rate 2000 g/ha
  Plant response rating, Velvetleaf: 0

## CC(C)N(C(=O)n1oc(=O)n(C(C)C)c1=O)c1ccccc1 [Compound 113]
Common ragweed; [4]
  Plant response rating, C. ragweed: 0
Common ragweed; [1]
  Plant response rating, C. ragweed: 0
Common ragweed; [2]
  Plant response rating, C. ragweed: 0
Common ragweed; [3]
  Plant response rating, C. ragweed: 0
guineagrass; [4]
  Plant response rating, Guineagrass: 85
guineagrass; [1]
  Plant response rating, Guineagrass: 100
guineagrass; [2]
  Plant response rating, Guineagrass: 100
guineagrass; [3]
  Plant response rating, Guineagrass: 100
Johnson grass; [4]
  Plant response rating, Johnsongrass: 0
Johnson grass; [1]
  Plant response rating, Johnsongrass: 60
Johnson grass; [2]
  Plant response rating, Johnsongrass: 80
Johnson grass; [3]
  Plant response rating, Johnsongrass: 90
itchgrass; [4]
  Plant response rating, Itchgrass: 10
itchgrass; [1]
  Plant response rating, Itchgrass: 40
itchgrass; [2]
  Plant response rating, Itchgrass: 50
itchgrass; [3]
  Plant response rating, Itchgrass: 60
Spanishneedles; [4]
  Plant response rating, Spanishneedles: 0
Spanishneedles; [1]
  Plant response rating, Spanishneedles: 0
Spanishneedles; [2]
  Spanishneedles plant response rating: 0
Spanishneedles; [3]
  Spanishneedles plant response rating: 0
sandbur; [4]
  Plant response rating, Sandbur: 0
sandbur; [1]
  Plant response rating, Sandbur: 65
sandbur; [2]
  Sandbur plant response rating: 75
sandbur; [3]
  Sandbur plant response rating: 100
Common pursiane; [4]
  Plant response rating, C. purslane: 0
Common pursiane; [1]
  Plant response rating, C. purslane: 0
Common pursiane; [2]
  Plant response rating, C. purslane: 0
Common pursiane; [3]
  Plant response rating, C. purslane: 0
Large crabgrass; [4]
  Plant response rating, Large crabgrass: 85
Large crabgrass; [1]
  Plant response rating, Large crabgrass: 100
Large crabgrass; [2]
  Plant response rating, Large crabgrass: 100
Large crabgrass; [3]
  Plant response rating, Large crabgrass: 100
Tall mallow; [4]
  Plant response rating, Tall Mallow: 0
Tall mallow; [1]
  Plant response rating, Tall Mallow: 0
Tall mallow; [2]
  Tall Mallow plant response rating: 0
Tall mallow; [3]
  Tall Mallow plant response rating: 30
goosegrass; [4]
  Plant response rating, Goosegrass: 90
goosegrass; [1]
  Plant response rating, Goosegrass: 100
goosegrass; [2]
  Plant response rating, Goosegrass: 100
goosegrass; [3]
  Plant response rating, Goosegrass: 100
Alexandergrass; [4]
  Plant response rating, Alexandergrass: 65
Alexandergrass; [1]
  Plant response rating, Alexandergrass: 85
Alexandergrass; [2]
  Plant response rating, Alexandergrass: 98
Alexandergrass; [3]
  Plant response rating, Alexandergrass: 98
